Laboratory results taken from article PMC12282092, “Discovery of a non-nucleoside inhibitor that binds to a novel site in the palm domain of the respiratory syncytial virus RNA-dependent RNA polymerase” (Journal of Virology, 2025).
pEC50, pIC50, pKd: −log10 of the molar value. Like-named read-outs stand apart in the source and are kept apart here.

How the values were obtained:
RSV L+P-JNJ-7184 complex = target: T1, RSV L+P-JNJ-7184 complex (Human respiratory syncytial virus A, UniProt P28887); assay: SPR A-B-A competition with connector domain binder JNJ-7184; type: binding; settings: 150 nM JNJ-7184 competitor
T1 construct: a biophysical SPR assay was established using full-length RSV L+P complex; Twin-Strep-tag (N); made in house; host or cells: Sf9 insect cells (baculovirus)
Experimental: (§1) Here, the competitor was held at a constant concentration (60 nM for JNJ-8003 and 150 nM for JNJ-7184) during baseline acquisition, association, and dissociation of the test compound.
(§2) The Biacore A-B-A injection method was used to assess compound binding competition. RSVpol was immobilized as above. […] Dissociation of any bound 22 was then measured for 500 s in the presence of a competitor. The temperature was 25°C, and the flow rate was kept at 30 µL/min.

RSV L+P [1] = target: T2, RSV L+P (Human respiratory syncytial virus A, UniProt P28887); assay: SPR assay; type: binding; settings: 25°C
T2 construct: Biochemical activity of 1 and 22 against full-length RSV L+P; Twin-Strep-tag (N); made in house; host or cells: Sf9 insect cells (baculovirus, pFastBac Dual)
Experimental: A Biacore Series S SA (Cytiva) chip is first derivatized by a 60 s injection of 50 µg/mL Tris NTA-biotin (synthesized in-house). The chip was further conditioned by a 60 s injection of 350 mM EDTA (Cytiva, 28995043) followed by a 60 s injection of 0.5 mM NiCl2 (Cytiva, 28995043). Purified human, recombinant His-tagged RSV L+P protein (C-terminal 8× His) was captured via a 1,200 s injection at 30 µg/mL to obtain immobilization levels of 8,000–9,000 RU. The surface was then blocked with a 60 s injection of 100 µM PEG-biotin (Thermo Scientific). The experiments were performed at 25°C, using a Biacore 8K+ (Cytiva) and running buffer: 10 mM HEPES, 300 mM NaCl, 10 mM MgCl2, pH 7.4, 5% glycerol, 2% DMSO, 0.005% p20, 0.5 mM TCEP. […] Reference and buffer-blank subtracted data were analyzed with the Biacore 8K Insight Evaluation Software and fit to a 1:1 Langmuir model to obtain KD values and binding kinetics.

RSV-A/A2 = assay: microbe, parasite or virus in culture; type: cell-based; settings: human respiratory syncytial virus; RSV-A/A2, HeLa cells, RT-qPCR
RSV-A/Long = assay: microbe, parasite or virus in culture; type: cell-based; settings: human respiratory syncytial virus, HeLa cells, RT-qPCR
RSV-B/Wash/18537 = assay: microbe, parasite or virus in culture; type: cell-based; settings: human respiratory syncytial virus; RSV-B/Wash/18537, HeLa cells, RT-qPCR
[2] = test system: RSV replicon in APC-126 cells; assay: APC-126 minireplicon assay; type: cell-based; settings: human respiratory syncytial virus, APC-126, 72 h
Experimental: (§3) A proprietary BHK-based cell line, APC-126, harboring the RSV replicon, was obtained from Apath (New York, USA) and cultured in DMEM/Ham’s F-12 50/50, supplemented with 10% (vol/vol) FBS (Gibco), 1% (vol/vol) penicillin-streptomycin (Gibco), 1% (vol/vol) MEM non-essential amino acids (Gibco), 5% (vol/vol) Tryptose Phosphate Broth (Sigma-Aldrich), and 10 µg/mL blasticidin (Invitrogen) at 37°C in a humidified 5% CO2 incubator ([36]). Cells were plated (3,500 cells/well) in white, 96-well, clear-bottom plates (Corning) and incubated for 24 h. Compound serial dilutions (9 point, threefold) were prepared in DMSO and diluted 10-fold in culture media before treating cells (final [DMSO] = 1% [vol/vol]). […] In parallel, cytotoxicity was measured using CellTiter-Glo (Promega) under the same conditions. […] Figures were prepared with GraphPad Prism.

RSV-B/05_036549 = assay: microbe, parasite or virus in culture; type: cell-based; settings: human respiratory syncytial virus; RSV-B/05_036549, HeLa cells, RT-qPCR
RSV L+P [3] = target: T2, RSV L+P; assay: Pyrophosphate luminescence detection assay, full-length RSV L+P; type: biochemical; settings: pyrophosphate luminescence detection assay
Experimental: Working solutions (3×) of RSV L+P (60 nM), substrate (30 µM each of GTP, CTP, UTP, 300 µM ATPαS [Jena Bioscience], 15 µM RNA template TrC-25), detection reagents (6 nM Luciferase, 900 µM luciferin, 3 U/µL ATP Sulfurylase [BioVision], 15 µM adenosine phosphosulfate [APS], 3 mM coenzyme A), were prepared in complete assay buffer. Compounds were dissolved in dimethyl sulfoxide (DMSO) and dispensed to white, 1536-well cyclic olefin copolymer (COC) plates (Corning, 9145BC) using an Echo Acoustic Liquid Handler (Beckman Coulter, San Jose, CA). Substrate (1 µL) and detection reagents (1 µL) were dispensed using a Multidrop Combi Dispenser (ThermoFisher, Waltham, MA), followed by enzyme (1 µL) to initiate the reaction. Final screening concentrations were 20 nM RSV L+P, 10 µM GTP/CTP/UTP, 100 µM ATPαS, 5 µM TrC-25, 2 nM Luciferase (Promega), 300 µM luciferin (Promega), 1 U/µL ATP sulfurylase, 5 µM APS, and 1 mM CoA. […] Luminescence was detected using the PHERAStar FSX (BMG Labtech, Ortenberg, Germany).

RSV L+P [4] = target: T2, RSV L+P; assay: De novo RNA synthesis assay (TrC-14, +3 site); type: biochemical; settings: TrC-14 template
Experimental: The reaction was quenched by an equal volume of gel loading buffer consisting of 90% formamide and 50 mM EDTA. Samples were heated to 95°C for 5 min, resolved on a 22.5% polyacrylamide urea sequencing gel at 80 W, and then transferred to Whatman cellulose chromatography paper (Millipore Sigma). The gel was dried for 1 h on a gel dryer (Bio-Rad), exposed to a phosphor screen, and imaged using a Typhoon phosphorimager (GE Healthcare).

[5] = test system: rgRSV224 virus (RSV A2) in HeLa cells; assay: HeLa cell rgRSV224 eGFP reporter viral proliferation assay; type: cell-based; settings: RSV eGFP phenotypic assay in HeLa cells; for pEC50: MOI 1, 72 h, n ≥ 2, read-out: Cellular EC50
Experimental: (§4) Compound serial dilutions (9 point, fourfold) were prepared in DMSO, and 200 nL was transferred to black, 384-well, clear-bottom microtiter plates (Corning, Amsterdam, The Netherlands) via acoustic drop ejection ([36], [50]). […] Then, 20 µL of a HeLa cell suspension (3,000 cells/well) was added with a Multidrop Combi, and cells were incubated at 37°C in a 5% CO2 atmosphere. After 72 h, GFP expression was quantified using an EnVision Multimode Plate Reader (Perkin Elmer, Zaventem, Belgium), and data were normalized to untreated and media-only (no virus) controls. Cytotoxicity was determined in parallel using the ATPlite kit (Perkin Elmer, Zaventem, Belgium). Luminescence was measured in white, 384-well microtiter plates (Corning) on a ViewLux uHTS Microplate Imager apparatus (PerkinElmer, Zaventem, Belgium), and cellular ATP content was quantified by normalizing to untreated and media-only (no cell) controls. […] Figures were prepared with GraphPad Prism.

[6] = HeLa cytotoxicity assay (ATPlite); settings: human, HeLa cells
Experimental: as §4

HeLa cells [7] = assay: HeLa cytotoxicity assay (ATPlite); settings: HeLa cells
Experimental: as §4

in vitro = settings: human
[8] = target: human mitochondrial RNA polymerase (POLRMT) (Homo sapiens, UniProt O00411); assay: POLRMT assay
[9] = Metabolic stability in liver microsomes; settings: in vitro intrinsic clearance in human liver microsomes, n = 1
RSV L+P [10] = target: T2, RSV L+P; assay: Mode of inhibition by progress curve analysis; type: biochemical
Experimental: To determine the mode of inhibition, progress curve analysis was carried out with the full-length complex.

HeLa cells [11] = settings: HeLa cytotoxicity
RSV L+P [12] = target: T2, RSV L+P; assay: Single-nucleotide incorporation (primer extension) assays; type: biochemical; settings: 50 µM 22, primers AC, ACG, ACGA, ACGAG
Experimental: Reactions were initiated by the addition of 100 nM [α-^32P]NTP (3,000 Ci/mmol) tracer and run for an additional 30 min before quenching with an equal volume of gel loading buffer (90% formamide, 50 mM EDTA, 0.05% Xylene Cyanol and Bromophenol Blue). Gel images were obtained and processed as described for the de novo assay, and data were normalized to untreated controls to determine percent inhibition.

RSV L+P [13] = target: T2, RSV L+P; assay: Yonetani-Theorell mutual exclusivity analysis; type: biochemical
Experimental: Here, matrix titrations of the two inhibitors were carried out, and initial rates were determined for each inhibitor combination. Data were fitted to the Yonetani-Theorell equation (Supp. equation S1) to determine the interaction constant, γ. […] When γ > 1, binding is antagonistic, and as γ approaches infinity, the ligands are considered mutually exclusive. Conversely, when γ < 1, binding is synergistic.

RSV L+P-JNJ-8003 complex = target: T3, RSV L+P-JNJ-8003 complex (Human respiratory syncytial virus A, UniProt P28887); assay: SPR A-B-A competition with capping domain binder JNJ-8003; type: binding; settings: 60 nM JNJ-8003 competitor
T3 construct: a biophysical SPR assay was established using full-length RSV L+P complex; Twin-Strep-tag (N); made in house; host or cells: Sf9 insect cells (baculovirus)
Experimental: as §1, §2

[14] = APC-126 cytotoxicity assay (CellTiter-Glo); type: cell-based; settings: hamster; APC-126, 72 h; read-out: Replicon CC50
Experimental: as §3

T2 sequence (P03421 whole entry): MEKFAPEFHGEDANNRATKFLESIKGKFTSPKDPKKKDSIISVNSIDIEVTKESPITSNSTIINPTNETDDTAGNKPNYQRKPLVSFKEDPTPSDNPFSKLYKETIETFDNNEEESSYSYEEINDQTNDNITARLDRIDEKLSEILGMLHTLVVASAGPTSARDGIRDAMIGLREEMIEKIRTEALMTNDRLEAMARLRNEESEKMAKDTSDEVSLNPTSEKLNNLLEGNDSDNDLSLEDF
T2 sequence (P28887 whole entry): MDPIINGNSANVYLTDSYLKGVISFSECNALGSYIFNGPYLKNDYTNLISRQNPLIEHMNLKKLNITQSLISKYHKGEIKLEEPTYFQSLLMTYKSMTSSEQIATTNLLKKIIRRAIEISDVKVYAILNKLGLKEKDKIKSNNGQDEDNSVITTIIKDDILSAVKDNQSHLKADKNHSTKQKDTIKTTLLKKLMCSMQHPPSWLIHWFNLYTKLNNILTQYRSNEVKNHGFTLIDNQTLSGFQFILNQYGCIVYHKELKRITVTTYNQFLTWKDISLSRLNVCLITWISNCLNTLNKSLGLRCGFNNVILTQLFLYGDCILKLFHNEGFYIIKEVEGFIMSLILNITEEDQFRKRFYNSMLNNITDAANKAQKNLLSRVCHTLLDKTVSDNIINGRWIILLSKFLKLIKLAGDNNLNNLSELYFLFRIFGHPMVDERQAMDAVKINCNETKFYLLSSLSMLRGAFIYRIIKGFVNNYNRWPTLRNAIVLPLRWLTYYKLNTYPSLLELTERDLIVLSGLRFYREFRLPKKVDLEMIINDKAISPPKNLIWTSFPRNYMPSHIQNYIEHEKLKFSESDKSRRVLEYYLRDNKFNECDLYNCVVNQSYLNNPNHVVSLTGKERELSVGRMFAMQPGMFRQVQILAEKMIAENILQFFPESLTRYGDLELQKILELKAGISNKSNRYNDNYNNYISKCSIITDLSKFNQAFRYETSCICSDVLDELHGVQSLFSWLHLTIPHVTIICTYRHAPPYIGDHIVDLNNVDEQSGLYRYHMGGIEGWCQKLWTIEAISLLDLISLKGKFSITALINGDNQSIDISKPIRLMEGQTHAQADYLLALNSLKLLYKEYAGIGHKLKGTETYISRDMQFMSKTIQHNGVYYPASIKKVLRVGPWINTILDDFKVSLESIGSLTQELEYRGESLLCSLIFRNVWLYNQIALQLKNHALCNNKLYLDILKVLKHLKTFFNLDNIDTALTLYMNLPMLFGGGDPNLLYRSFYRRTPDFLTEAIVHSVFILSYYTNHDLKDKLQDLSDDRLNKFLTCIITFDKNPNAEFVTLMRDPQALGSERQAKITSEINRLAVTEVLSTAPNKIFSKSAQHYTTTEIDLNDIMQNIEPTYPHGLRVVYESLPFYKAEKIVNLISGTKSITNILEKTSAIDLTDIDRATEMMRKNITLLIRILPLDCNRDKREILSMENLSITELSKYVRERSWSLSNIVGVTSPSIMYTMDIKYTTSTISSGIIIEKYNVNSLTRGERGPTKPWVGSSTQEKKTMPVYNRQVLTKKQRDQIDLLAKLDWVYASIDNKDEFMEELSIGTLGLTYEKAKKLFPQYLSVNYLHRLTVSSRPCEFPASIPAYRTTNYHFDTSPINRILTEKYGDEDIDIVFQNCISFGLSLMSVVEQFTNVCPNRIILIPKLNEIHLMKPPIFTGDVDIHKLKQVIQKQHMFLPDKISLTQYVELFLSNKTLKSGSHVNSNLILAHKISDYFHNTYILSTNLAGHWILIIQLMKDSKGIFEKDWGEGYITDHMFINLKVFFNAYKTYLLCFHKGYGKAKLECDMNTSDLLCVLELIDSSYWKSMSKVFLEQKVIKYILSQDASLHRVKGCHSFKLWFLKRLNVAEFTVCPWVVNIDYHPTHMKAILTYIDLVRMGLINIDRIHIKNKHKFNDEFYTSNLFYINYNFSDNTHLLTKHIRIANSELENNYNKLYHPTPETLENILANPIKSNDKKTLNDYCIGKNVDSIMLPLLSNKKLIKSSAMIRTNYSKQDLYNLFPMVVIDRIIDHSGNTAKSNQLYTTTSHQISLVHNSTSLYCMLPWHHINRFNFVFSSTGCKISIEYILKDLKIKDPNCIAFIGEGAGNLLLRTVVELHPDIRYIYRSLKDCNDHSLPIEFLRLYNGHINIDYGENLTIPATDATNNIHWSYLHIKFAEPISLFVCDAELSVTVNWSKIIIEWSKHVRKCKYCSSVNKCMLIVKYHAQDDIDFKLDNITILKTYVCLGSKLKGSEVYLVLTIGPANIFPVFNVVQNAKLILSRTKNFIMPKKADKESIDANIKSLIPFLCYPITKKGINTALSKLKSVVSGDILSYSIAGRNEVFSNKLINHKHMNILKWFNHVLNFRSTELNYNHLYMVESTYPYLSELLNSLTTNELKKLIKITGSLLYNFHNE
T1 sequence (P03421 whole entry, the tested form may be a part): as the sequence (P03421 whole entry) above
T1 sequence (P28887 whole entry, the tested form may be a part): as the sequence (P28887 whole entry) above

## CN1C(=O)C2(CCN(c3cnc(C#N)c(Cl)c3)CC2)c2cc(Br)ccc21 [Compound 22, 5-(5-bromo-1-methyl-2-oxospiro[indoline-3,4'-piperidin]-1'-yl)-3-chloropicolinonitrile]
RSV L+P-JNJ-7184 complex
  SPR ka in the presence of JNJ-7184: 140000 M⁻¹ s⁻¹
  SPR kd in the presence of JNJ-7184: 0.0725 s⁻¹
RSV L+P-JNJ-7184 complex; read-out: SPR KD in the presence of JNJ-7184
  pKd: 6.28
RSV L+P [1]; immobilized RSV L+P
  SPR kd: 0.0609 s⁻¹
RSV L+P [1]; immobilized full-length RSV L+P
  pKd: 6.33
RSV-A/A2
  pEC50: 5.96
RSV-A/Long
  pEC50: 6.01
RSV-B/Wash/18537
  pEC50: 5.57
[2]
  pEC50: 5.65
RSV-B/05_036549
  pEC50: 6.00
RSV L+P [3]; full-length RSV L+P, n ≥ 2, read-out: Biochemical IC50
  pIC50: 6.57
RSV L+P [3]; read-out: Biochemical Emax
  Emax: 105%
RSV L+P [4]; +3 site
  maximal inhibition of pppGA formation: 85%
RSV L+P [4]; +3 site, read-out: IC50 of de novo pppGA (pppGpA) formation
  pIC50: 6.54
RSV L+P [4]; IC50 of 11-mer product
  pIC50: 6.32
RSV L+P [4]
  maximal inhibition of 11-mer product: 71%
[5]
  pEC50: 5.62
[5]; human respiratory syncytial virus, HeLa, 72 h
  pEC50: 5.64
[5]; human respiratory syncytial virus, read-out: Cellular Emax
  Emax: 94%
[6]
  CC50 at 72 h: > 50 µM
HeLa cells [7]
  Cytotoxicity Emax: 12.8%
In vitro
  CC50: > 50 µM
[8]
  pIC50: < 4.00
[9]
  HLM CLint: 10.9 µL/min/mg microsomal protein
RSV L+P [10]; mixed noncompetitive/uncompetitive
  α (mixed model inhibition) with respect to UTP: 0.33 ± 0.27
RSV L+P [10]; noncompetitive
  α with respect to TrC-25 RNA template: 1.1 ± 0.6
HeLa cells [11]; line RSV-A/A2
  CC50: > 50 µM
HeLa cells [11]; line RSV-A/Long
  CC50: > 50 µM
HeLa cells [11]; line RSV-B/Wash/18537
  CC50: > 50 µM
RSV L+P [12]
  inhibition of primer extension, TrC-14 template: inhibited
RSV L+P [13]; 22 titrated with capping domain inhibitor compound 23
  Yonetani-Theorell interaction constant γ: 1.1 ± 0.2
RSV L+P [13]; 22 titrated with connector domain inhibitor compound 24
  Yonetani-Theorell interaction constant γ: 0.88 ± 0.72
RSV L+P-JNJ-8003 complex
  SPR ka in the presence of JNJ-8003: 119000 M⁻¹ s⁻¹
  SPR kd in the presence of JNJ-8003: 0.0628 s⁻¹
RSV L+P-JNJ-8003 complex; read-out: SPR KD in the presence of JNJ-8003
  pKd: 6.28
[14]
  CC50 at 72 h: > 50 µM
